Measurements taken from ChEMBL document CHEMBL1201862, “PubChem BioAssay data set” (2004).
The source made the active and inactive calls.

What was measured:
[1] = biological target: G-protein coupled receptor 55 (Homo sapiens, UniProt Q9Y2T6); assay: inhibition of LPI-stimulated GPR55 beta-arrestin translocation – imaging, U2OS, beta-arrestin-GFP, LPI agonist, primary screen (AID 2013); type: functional;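 further: antagonist potency measured as reduced agonist-driven arrestin aggregation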
[2] = biological target: Eukaryotic translation initiation factor 4E (Mus musculus, UniProt P63073); assay: blockers of eIF4G binding by eIF4E – biochemical, TR-FRET, dose response (AID 855); type: functional;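 further: potency for disrupting eIF4E binding to eIF4GI seen as loss of FRET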
Sequence of Eukaryotic translation initiation factor 4E (P63073 whole entry): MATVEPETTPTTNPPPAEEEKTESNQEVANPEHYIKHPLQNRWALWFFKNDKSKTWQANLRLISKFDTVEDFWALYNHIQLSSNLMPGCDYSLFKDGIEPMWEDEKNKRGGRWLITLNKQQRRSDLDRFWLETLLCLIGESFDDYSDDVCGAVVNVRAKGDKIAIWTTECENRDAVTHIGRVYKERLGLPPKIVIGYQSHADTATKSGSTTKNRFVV

[3] = HPDE-C7 pancreatic duct cell viability loss – fluorescence, HTS (AID 430); type: functional, cell-based; conditions: Homo sapiens
[4] = viability loss of HPDE-C7K cells – cell-based, fluorescence, HTS, primary screen (AID 431); type: functional; conditions: Homo sapiens
[5] = biological target: Glucose-6-phosphate 1-dehydrogenase (Homo sapiens, UniProt P11413); assay: inhibition of Homo sapiens G6PD, dose series – biochemical, fluorescence, selectivity assay for P. falciparum G6PD inhibitor project, dose response (AID 504792); type: functional
Sequence of Glucose-6-phosphate 1-dehydrogenase (P11413 whole entry): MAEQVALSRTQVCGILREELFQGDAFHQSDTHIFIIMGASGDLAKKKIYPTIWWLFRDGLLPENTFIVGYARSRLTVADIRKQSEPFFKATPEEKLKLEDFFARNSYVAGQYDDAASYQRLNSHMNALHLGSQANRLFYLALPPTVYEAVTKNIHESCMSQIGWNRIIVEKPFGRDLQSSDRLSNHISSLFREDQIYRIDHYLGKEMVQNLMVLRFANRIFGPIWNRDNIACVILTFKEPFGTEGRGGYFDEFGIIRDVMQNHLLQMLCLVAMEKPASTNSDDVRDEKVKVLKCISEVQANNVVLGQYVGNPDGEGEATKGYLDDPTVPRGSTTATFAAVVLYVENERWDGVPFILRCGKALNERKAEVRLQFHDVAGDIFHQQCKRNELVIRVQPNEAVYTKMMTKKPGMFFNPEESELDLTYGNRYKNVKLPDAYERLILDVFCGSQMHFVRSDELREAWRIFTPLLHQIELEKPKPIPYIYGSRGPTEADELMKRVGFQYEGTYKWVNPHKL

[6] = biological target: T1, Mannose-6-phosphate isomerase (Homo sapiens, UniProt P34949); assay: MPI inhibition at elevated mannose 6-phosphate – biochemical, fluorescence intensity, high mannose 6-phosphate, primary screen (AID 1220)
T1 sequence (P34949 whole entry): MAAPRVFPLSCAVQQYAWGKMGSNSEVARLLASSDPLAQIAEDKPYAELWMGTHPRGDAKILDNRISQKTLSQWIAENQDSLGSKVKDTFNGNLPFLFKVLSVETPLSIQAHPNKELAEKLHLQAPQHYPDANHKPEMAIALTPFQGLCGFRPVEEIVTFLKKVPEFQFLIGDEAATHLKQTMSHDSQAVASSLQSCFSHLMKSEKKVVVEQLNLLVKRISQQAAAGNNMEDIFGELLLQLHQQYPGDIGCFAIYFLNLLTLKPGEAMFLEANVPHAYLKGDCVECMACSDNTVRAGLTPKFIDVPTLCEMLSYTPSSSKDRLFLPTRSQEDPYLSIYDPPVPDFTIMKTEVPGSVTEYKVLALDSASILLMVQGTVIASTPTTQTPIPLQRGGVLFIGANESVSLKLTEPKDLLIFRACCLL

[7] = biological target: T2, E3 ubiquitin-protein ligase XIAP (Homo sapiens, UniProt P98170); assay: Counter Screen using XIAP-Bir3 for Chemical Antagonists of Bir1/2 domains of IAP-family anti-apoptotic proteins. [Related pubchem assays (depositor defined):AID1018, AID1449, AID1514, AID1638, AID1749, AID1750, AID488957, AID488963]
T2 sequence (P98170 whole entry): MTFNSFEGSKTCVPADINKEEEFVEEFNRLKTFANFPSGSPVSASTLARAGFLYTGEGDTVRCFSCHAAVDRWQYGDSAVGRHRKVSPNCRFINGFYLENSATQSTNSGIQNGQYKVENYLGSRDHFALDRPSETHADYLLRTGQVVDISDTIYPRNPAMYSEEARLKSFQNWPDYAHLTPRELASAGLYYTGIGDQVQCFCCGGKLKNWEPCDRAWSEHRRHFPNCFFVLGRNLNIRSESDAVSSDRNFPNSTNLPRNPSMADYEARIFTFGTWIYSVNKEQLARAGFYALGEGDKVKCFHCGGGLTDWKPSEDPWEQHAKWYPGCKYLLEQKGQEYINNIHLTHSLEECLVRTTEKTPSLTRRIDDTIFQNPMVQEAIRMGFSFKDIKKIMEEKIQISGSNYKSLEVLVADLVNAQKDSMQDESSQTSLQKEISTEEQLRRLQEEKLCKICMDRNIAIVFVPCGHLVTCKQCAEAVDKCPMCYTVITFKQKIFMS

[8] = biological target: T1, Mannose-6-phosphate isomerase; assay: MPI enzyme activity inhibition – biochemical, fluorescence intensity, coupled assay, primary screen (AID 1209)
[9] = biological target: T2, E3 ubiquitin-protein ligase XIAP; assay: small molecules displacing peptide from XIAP – biochemical, IAP family, fluorescence polarization (AID 1018); type: functional
Prothrombin = Prothrombin (Homo sapiens, UniProt P00734); assay: Thrombin 1536 HTS Dose Response Confirmation. [Related pubchem assays: 1046 (Thrombin 1536 HTS; hits were confirmed in this assay)]; type: functional
[10] = biological target: T3, Corticotropin-releasing factor receptor 2/Corticotropin-releasing factor-binding protein (Homo sapiens, UniProt P24387+Q13324); assay: activators of CRF receptor 2 with binding protein – uHTS hits, confirmation (AID 602473); type: functional; conditions: read-out: EC50_Mean
T3 sequence (Q13324 whole entry): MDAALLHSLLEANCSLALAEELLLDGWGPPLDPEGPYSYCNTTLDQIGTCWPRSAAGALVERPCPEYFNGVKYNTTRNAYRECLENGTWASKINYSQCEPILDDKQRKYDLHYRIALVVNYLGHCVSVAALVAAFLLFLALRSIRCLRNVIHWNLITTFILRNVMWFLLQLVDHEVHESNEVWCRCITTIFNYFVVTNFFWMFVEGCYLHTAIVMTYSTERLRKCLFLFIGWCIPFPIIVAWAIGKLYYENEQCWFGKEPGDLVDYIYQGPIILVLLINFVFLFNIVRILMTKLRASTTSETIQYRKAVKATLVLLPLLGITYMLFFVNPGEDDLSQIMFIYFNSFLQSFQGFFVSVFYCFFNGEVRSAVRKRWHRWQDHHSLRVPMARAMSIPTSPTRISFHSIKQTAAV
T3 sequence (P24387 whole entry): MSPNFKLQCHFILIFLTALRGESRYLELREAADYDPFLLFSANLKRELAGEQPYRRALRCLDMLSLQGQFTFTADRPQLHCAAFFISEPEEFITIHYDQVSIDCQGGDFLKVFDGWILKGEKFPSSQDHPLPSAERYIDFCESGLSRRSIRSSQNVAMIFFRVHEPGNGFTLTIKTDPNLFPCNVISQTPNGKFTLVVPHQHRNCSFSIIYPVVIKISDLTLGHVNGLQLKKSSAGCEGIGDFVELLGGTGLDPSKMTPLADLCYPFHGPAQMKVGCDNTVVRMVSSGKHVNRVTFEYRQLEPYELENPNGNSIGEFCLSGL

H9c2 = assay: cells; type: functional, cell-based; conditions: Rattus norvegicus, H9c2, Myocardium;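 further: confirmatory concentration-response retest of ultra-high-throughput screening hits for modulation of myocardial damage; cell death induced by hydrogen peroxide oxidative stress; compound pretreatment for 60 min then peroxide exposure for 2 h; potency is for protecting the cells against peroxide damage rather than for killing them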
Protein skinhead-1 = biological target: T4, Protein skinhead-1 (Caenorhabditis elegans, UniProt P34707); type: functional
T4 sequence (P34707 whole entry): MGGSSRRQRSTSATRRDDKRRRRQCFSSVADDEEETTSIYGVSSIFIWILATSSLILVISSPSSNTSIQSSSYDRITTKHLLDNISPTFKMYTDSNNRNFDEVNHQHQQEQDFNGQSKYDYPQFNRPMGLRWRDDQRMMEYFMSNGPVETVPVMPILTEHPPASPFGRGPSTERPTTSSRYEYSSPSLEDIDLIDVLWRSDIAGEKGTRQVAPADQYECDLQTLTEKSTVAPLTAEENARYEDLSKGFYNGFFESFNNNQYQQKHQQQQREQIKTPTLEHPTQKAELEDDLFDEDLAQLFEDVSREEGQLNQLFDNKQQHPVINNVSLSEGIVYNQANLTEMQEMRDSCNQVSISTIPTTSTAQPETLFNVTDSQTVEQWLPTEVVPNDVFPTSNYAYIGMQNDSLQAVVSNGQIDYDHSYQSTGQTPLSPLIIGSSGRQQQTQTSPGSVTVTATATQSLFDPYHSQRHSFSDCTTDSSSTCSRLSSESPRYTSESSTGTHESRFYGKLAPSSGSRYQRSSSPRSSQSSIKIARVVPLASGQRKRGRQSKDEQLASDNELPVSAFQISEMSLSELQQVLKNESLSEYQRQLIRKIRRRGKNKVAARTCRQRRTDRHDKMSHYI

[11] = Luminescence Cell-Based Dose Retest to Confirm Inhibitors of Cancer Stem Cells. [Related pubchem assays (depositor defined):AID2717, AID2721]; type: functional; conditions: Homo sapiens
[12] = biological target: Induced myeloid leukemia cell differentiation protein Mcl-1 (Homo sapiens, UniProt Q07820); type: functional
Sequence of Induced myeloid leukemia cell differentiation protein Mcl-1 (Q07820 whole entry): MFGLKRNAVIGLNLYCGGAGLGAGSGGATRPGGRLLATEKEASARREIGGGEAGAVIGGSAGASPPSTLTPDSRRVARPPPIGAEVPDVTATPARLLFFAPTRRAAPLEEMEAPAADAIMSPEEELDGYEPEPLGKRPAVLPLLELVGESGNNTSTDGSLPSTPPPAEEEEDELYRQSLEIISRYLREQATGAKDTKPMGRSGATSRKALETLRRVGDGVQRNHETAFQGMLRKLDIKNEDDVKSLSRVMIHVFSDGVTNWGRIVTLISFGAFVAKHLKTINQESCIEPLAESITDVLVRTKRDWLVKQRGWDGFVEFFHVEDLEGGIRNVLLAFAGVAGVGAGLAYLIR

Genome polyprotein = Genome polyprotein (dengue virus type 2, UniProt P29990); assay: flavivirus cap methylation enzyme inhibition – biochemical, confirmation dose response, primary screen (AID 588689); type: functional
Sequence of Genome polyprotein (P29990 2492-3391 limits assumed): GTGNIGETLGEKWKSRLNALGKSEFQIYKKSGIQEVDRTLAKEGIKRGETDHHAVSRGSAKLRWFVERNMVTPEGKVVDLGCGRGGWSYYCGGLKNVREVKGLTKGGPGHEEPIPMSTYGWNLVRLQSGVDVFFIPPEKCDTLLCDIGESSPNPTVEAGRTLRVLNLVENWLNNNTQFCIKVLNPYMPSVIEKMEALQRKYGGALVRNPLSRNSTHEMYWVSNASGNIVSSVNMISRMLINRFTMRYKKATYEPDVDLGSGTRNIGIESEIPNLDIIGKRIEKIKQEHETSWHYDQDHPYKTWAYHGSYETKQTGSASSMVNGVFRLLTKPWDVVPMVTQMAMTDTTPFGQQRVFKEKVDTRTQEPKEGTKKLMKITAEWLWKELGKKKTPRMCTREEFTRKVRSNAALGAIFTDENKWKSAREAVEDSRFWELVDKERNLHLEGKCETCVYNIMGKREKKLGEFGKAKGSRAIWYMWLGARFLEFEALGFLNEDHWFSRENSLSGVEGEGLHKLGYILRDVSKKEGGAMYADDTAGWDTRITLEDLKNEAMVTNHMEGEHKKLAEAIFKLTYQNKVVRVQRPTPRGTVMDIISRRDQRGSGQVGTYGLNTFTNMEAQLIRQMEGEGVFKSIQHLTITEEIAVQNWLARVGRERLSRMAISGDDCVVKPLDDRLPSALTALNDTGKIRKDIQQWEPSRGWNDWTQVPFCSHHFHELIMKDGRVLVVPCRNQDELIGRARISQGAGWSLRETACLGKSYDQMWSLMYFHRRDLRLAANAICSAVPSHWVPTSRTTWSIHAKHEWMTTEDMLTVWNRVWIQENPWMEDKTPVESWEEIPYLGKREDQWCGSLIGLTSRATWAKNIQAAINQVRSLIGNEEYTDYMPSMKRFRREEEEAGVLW

[13] = Trypanosoma cruzi growth suppression in host cells – NIH3T3 host cells, beta-gal luminescence, confirmation (AID 2044); type: functional, cell-based;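 further: intracellular parasites grown in NIH/3T3 mouse fibroblasts as host cells; luminescent beta-galactosidase reporter signal from transgenic T. cruzi replicating inside host cells; inhibitors lower the luminescence signal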
[14] = NIH3T3 cell viability loss – ATP luminescence, mouse fibroblasts, counter-screen, dose response (AID 2010); type: functional, cell-based;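 further: cells exposed to compound for about 90 hours before reading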
[15] = THP-1 cell cytotoxicity, dose response, cytotoxicity control for non-replicating M. tuberculosis project (AID 489025); type: functional
cells [16] = type: functional
[17] = Luminescence Cell-Based Dose Response HTS to Identify Activators of Luciferase Translation or Activity in H4 […] Cells. [Related pubchem assays: 1829 (Project Summary), 1814 (Primary HTS)]; type: functional
H4 = assay: Luminescence Cell-Based Dose Response HTS to Identify Activators of 5'UTR Stem-Loop Driven Prion Protein mRNA Translation in H4 Neuroglioblastoma Cells. [Related pubchem assays: 1829 (Project Summary), 1814 (Primary HTS)]; type: functional; conditions: Homo sapiens
[18] = Luminescence Cell-Based Dose Confirmation HTS to Identify Activators of 5'UTR Stem-Loop Driven Alpha-Synuclein mRNA Translation in H4 Neuroglioblastoma Cells. [Related pubchem assays: 1829 (Project Summary), 1814 (Primary HTS)]; type: functional
INS1 = assay: INS-1E survival protection against cytokine death – cell-based, luminescence, retest, dose response (AID 449756); type: functional; conditions: Rattus norvegicus;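 further: cell death triggered by IL-1 beta plus TNF-alpha plus IFN-gamma mixture; protective hits raise ATP signal compared with cytokine alone wells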
[19] = HEK-293T viability loss after treatment – luminescence, T-cell screen hits, cytotoxicity control for TCR NF-kB inhibitor project, dose response (AID 489026); type: functional, cell-based;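 further: cells exposed to compound about 14 hours before the viability readout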
HEK293 [20] = assay: cells; type: functional, cell-based; conditions: Homo sapiens
HEK293 [21] = assay: inhibition of NOD1-driven NF-kB reporter – cell-based, luminescence, uHTS, primary screen (AID 1578); type: functional; conditions: Homo sapiens
cells [22] = assay: cells
HEK293 [23] = assay: cells; type: functional, cell-based; conditions: Homo sapiens; remark: listed apart in the source
[24] = biological target: T5, Short transient receptor potential channel 4 (Mus musculus, UniProt Q9QUQ5); assay: calcium entry via TRPC4 opening agents – cell-based, HEK293 TRPC4/mu-opioid, Fluo-4 calcium, dose response (AID 434937); type: functional
T5 sequence (Q9QUQ5 whole entry): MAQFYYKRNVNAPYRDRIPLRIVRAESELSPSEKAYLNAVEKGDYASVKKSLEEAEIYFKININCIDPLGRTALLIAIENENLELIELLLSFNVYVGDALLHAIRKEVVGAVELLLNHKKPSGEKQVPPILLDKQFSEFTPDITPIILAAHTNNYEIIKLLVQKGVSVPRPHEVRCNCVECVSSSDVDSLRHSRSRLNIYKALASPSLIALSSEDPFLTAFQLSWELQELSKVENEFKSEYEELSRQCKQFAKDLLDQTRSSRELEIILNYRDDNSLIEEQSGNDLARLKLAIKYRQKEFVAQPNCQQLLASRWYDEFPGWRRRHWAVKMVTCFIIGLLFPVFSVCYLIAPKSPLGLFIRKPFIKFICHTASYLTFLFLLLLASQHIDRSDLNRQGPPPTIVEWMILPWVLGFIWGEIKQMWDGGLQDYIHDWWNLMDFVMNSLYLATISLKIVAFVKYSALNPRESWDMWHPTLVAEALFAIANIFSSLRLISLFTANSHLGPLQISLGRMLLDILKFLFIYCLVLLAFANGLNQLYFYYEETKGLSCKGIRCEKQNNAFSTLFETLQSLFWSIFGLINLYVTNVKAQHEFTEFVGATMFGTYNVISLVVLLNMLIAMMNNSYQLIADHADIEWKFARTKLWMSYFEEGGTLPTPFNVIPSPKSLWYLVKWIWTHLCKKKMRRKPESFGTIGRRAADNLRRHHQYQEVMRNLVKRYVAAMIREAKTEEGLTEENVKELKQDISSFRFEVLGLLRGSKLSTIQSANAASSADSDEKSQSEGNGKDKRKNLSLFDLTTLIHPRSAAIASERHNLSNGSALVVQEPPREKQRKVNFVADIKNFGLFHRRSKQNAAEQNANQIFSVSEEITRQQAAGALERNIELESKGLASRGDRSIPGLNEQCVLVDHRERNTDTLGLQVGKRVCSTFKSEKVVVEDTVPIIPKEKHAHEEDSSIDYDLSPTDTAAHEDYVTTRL

Sequence of G-protein coupled receptor 55 (Q9Y2T6 whole entry): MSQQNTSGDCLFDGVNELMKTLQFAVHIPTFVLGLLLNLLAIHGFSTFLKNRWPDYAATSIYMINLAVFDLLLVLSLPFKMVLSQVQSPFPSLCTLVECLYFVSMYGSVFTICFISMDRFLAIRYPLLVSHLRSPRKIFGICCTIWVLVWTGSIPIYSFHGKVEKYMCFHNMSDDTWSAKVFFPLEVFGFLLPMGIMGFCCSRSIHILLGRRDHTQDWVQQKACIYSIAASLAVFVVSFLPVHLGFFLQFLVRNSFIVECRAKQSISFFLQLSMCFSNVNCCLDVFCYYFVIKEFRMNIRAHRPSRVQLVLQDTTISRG

Cc1[nH]c2c(Br)cccc2c1[C@H]1[C@@H](CC#N)C1(C)C
IC50 [1]: 1.49 µM (active)

CCOc1ccccc1NC(=O)C1CCN(S(=O)(=O)c2cccc3cccnc23)CC1
IC50 [2]: > 64 µM (inactive)

COc1ccc(NC(=O)c2cc(-c3cc(C)ccc3O)[nH]n2)cc1Cl
EC50 [3]: > 20 µM (not active) | EC50 [4]: > 20 µM (not active)

CCCCOc1ccc(Cc2nnc(S)n2N)cc1
IC50 [5]: > 80 µM (inactive)

CC[n+]1c(C)sc2c(C)cc(C)cc21
IC50 [6]: > 50 µM (not active) | IC50 [7]: > 100 µM (inactive) | IC50 [8]: 10.8 µM (active) | IC50 [9]: > 100 µM (not active)

Cc1ccc(-c2noc(CN3CCC(C(N)=O)CC3)n2)cc1
IC50 (Prothrombin): > 50 µM (not active) | EC50 [10]: > 53 µM (inactive)

Fc1cccc(COc2ccccc2CNc2ccccc2)c1
IC50 [7]: > 100 µM (inactive) | IC50 [9]: > 100 µM (not active)

CCC(=O)N1CCN(c2ccc(NC(=O)c3cc4ccccc4o3)cc2Cl)CC1
EC50 [3]: 11.5 µM (active) | IC50 (H9c2): 15.9 µM (active) | IC50 (Protein skinhead-1): > 100 µM (inactive) | EC50 [4]: 10.9 µM (active)

Cc1nnc(=O)[nH]c1NCc1ccco1
IC50 [2]: > 64 µM (inactive)

O=C1CC(=C(c2ccccc2)c2ccccc2)C(=O)N1CCCCN1CCN(c2cccc(Cl)c2)CC1
AC50 [11]: 624 nM (active) | IC50 [7]: > 100 µM (inactive) | IC50 [9]: > 100 µM (not active)

Cc1ccc(O)c(NC2=C(Cl)C(=O)N(Cc3ccccc3)C2=O)c1
IC50 [12]: 3.01 µM (not active) | IC50 (Genome polyprotein): > 100 µM (active) | IC50 [2]: 50 µM (inactive) | EC50 [13]: 4370 nM (active) | EC50 [14]: > 60 µM (inconclusive)

O=C(NCc1nnc(S)n1-c1ccc(F)cc1)c1ccco1
IC50 [7]: > 100 µM (inactive) | IC50 [9]: > 100 µM (not active)

CC(C)(C)c1ccccc1OCCOCCN1CCCCCC1
CC50 [15]: 27.6 µM (active) | EC50 [13]: 651 nM (active) | IC50 (cells [16]): > 50 µM (active) | EC50 [14]: > 60 µM (inconclusive)

O=C1/C(=C/c2ccc(N3CCOCC3)o2)S/C(=N\c2ccccc2)N1CCc1c[nH]c2ccccc12
EC50 [17]: > 120 µM (not active) | EC50 (H4): > 120 µM (not active) | EC50 [18]: 13 µM (active) | AC50 (INS1): 17.2 µM (active) | IC50 [19]: > 80 µM (inactive)

CCCC[n+]1c(C=C2C=Cc3ccccc3N2CC)sc2ccccc21
IC50 (HEK293 [20]): 11.1 µM (active) | EC50 (HEK293 [21]): 2.17 µM (active) | EC50 [13]: < 100 nM (active) | EC50 (cells [22]): 58 nM (active) | IC50 (HEK293 [23]): 1.96 µM (active) | EC50 [14]: > 60 µM (not active) | EC50 [24]: 7.5 µM (active) | IC50 [19]: > 80 µM (inactive)
